We go through 15 compounds from patent publication US20220402948A1, “EGFR INHIBITOR, COMPOSITION AND PREPARATION METHOD THEREFOR” (BETTA PHARMACEUTICALS CO., LTD., priority 2019, published 2022).

One test relates to A431. Description: A431 cell proliferation assay (CellTiter Glo, 72 hours). Type of test: cell-based. As to conditions: Homo sapiens, A-431, 72 h, cell proliferation, A431, 72 hours, Table 2; read-out: A431 IC50. The method in brief: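 A431 cells (2000/well) exposed 72 h to compound at 1000 nM down to 0.2 nM in 3-fold steps, 0.1% DMSO (0.5% for some series). Viability by CellTiter-Glo luminescence; IC50 by four-parameter nonlinear regression.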
In general terms: In ATP-based viability assays light output follows the ATP content of the culture.

Another test addresses EGFR WT (Homo sapiens, UniProt P00533). As to the kind of experiment: EGFR WT kinase test (mobility variation analysis, Caliper EZ Reader). As to conditions: kinase enzymatic activity, Table 1. Type of test: biochemical. An outline of the steps: (§1)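 Kinase pre-incubated with compound 10 minutes at room temperature, then ATP plus peptide substrate added; substrate conversion read by mobility shift after stop solution. Percent inhibition normalized to no-compound and no-enzyme controls; IC50 from variable-slope log(inhibitor) fit.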

Test [1] concerns the target Ba/F3-EGFR wild-type cell line (Homo sapiens, UniProt P00533). As to the kind of experiment: Ba/F3-EGFR wild-type cell proliferation assay (CellTiter Glo, 72 hours). Type of test: cell-based. As to conditions: Table 2, read-out: EGFR WT IC50. An outline of the steps:
(§2)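 Ba/F3 cells stably overexpressing wild-type EGFR or EGFR Δ19del/T790M/C797S were seeded at 2000 cells/well and incubated 72 h with compound. Viability was read by CellTiter-Glo luminescence, and IC50 came from a four-parameter logistic fit of signal against log concentration.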

The target in test [2] is Ba/F3 cells with EGFR Δ19del/T790M/C797S mutation gene stably overexpressed (Homo sapiens, UniProt P00533, T790M/C797S, cells depend on it, form not given). As to the kind of experiment: Ba/F3-Δ19del/T790M/C797S cell proliferation assay (CellTiter Glo, 72 hours). The class given is cell-based. The settings on record: Table 2, read-out: EGFR Δ19del/T790M/C797S IC50. The method in brief:
as §2

The target in another test is EGFRΔ19del/T790M/C797S (Homo sapiens, UniProt P00533, T790M/C797S, form not given). Description: EGFR Δ19del/T790M/C797S kinase test (mobility variation analysis, Caliper EZ Reader). The class given is biochemical. As to conditions: kinase enzymatic activity, Table 1. The method in brief: as §1
The next test concerns the target IGF1R (Homo sapiens, UniProt P08069). Description: IGF1R kinase test (mobility variation analysis, Caliper EZ Reader). The settings on record: kinase enzymatic activity, Table 1; read-out: EGFR IGF1R IC50. The class given is biochemical. The method in brief:
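Kinase preincubated 10 min at room temperature with compound (10-point 3-fold series, top 3000 nM), then ATP and substrate added and reacted at room temperature. Substrate conversion read by mobility-shift (Caliper EZ Reader); % inhibition vs no-enzyme and no-compound controls fitted to variable-slope curve for IC50.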

Each structure is given as a SMILES string. Bounds are passed on as bounds.

What is called IC50 is the concentration that inhibits the measured activity by half.

Sequence of Ba/F3 cells with EGFR Δ19del/T790M/C797S mutation gene stably overexpressed (P00533 with tags, fused parts or gaps DEL746-750/T790M/C797S, form open): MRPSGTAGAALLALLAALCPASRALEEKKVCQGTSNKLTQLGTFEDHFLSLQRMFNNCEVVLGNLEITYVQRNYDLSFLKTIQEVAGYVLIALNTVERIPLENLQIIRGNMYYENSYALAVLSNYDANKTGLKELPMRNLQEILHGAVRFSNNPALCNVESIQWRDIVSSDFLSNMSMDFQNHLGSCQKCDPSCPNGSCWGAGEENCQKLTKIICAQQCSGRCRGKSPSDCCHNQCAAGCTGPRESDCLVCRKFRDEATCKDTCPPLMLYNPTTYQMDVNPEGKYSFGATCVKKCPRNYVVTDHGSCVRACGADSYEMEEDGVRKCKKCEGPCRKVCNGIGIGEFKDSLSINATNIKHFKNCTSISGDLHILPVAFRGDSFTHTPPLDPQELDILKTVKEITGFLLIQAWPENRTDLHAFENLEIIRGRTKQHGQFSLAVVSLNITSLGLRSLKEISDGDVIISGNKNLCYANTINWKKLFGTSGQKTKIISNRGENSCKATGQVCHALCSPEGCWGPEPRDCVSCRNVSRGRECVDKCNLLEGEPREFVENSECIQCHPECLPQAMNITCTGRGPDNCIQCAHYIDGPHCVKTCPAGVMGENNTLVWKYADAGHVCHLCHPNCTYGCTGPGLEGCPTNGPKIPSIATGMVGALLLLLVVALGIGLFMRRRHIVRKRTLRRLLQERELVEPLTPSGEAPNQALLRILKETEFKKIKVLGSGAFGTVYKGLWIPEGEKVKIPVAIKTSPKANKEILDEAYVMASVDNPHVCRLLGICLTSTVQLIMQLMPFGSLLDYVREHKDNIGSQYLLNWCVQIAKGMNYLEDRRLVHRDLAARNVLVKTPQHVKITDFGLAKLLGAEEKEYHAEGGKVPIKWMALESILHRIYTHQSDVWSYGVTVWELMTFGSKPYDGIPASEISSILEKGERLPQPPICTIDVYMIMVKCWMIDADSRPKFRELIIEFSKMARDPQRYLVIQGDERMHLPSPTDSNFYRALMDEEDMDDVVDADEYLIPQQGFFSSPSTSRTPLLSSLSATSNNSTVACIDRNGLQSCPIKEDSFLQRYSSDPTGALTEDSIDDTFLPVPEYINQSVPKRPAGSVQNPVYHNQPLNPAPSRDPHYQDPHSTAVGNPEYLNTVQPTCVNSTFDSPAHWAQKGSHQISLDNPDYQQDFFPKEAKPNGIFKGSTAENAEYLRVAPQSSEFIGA
Sequence of EGFRΔ19del/T790M/C797S (P00533 with tags, fused parts or gaps DEL746-750/T790M/C797S, form open): as above
Sequence of IGF1R (P08069 31-1367, species assumed): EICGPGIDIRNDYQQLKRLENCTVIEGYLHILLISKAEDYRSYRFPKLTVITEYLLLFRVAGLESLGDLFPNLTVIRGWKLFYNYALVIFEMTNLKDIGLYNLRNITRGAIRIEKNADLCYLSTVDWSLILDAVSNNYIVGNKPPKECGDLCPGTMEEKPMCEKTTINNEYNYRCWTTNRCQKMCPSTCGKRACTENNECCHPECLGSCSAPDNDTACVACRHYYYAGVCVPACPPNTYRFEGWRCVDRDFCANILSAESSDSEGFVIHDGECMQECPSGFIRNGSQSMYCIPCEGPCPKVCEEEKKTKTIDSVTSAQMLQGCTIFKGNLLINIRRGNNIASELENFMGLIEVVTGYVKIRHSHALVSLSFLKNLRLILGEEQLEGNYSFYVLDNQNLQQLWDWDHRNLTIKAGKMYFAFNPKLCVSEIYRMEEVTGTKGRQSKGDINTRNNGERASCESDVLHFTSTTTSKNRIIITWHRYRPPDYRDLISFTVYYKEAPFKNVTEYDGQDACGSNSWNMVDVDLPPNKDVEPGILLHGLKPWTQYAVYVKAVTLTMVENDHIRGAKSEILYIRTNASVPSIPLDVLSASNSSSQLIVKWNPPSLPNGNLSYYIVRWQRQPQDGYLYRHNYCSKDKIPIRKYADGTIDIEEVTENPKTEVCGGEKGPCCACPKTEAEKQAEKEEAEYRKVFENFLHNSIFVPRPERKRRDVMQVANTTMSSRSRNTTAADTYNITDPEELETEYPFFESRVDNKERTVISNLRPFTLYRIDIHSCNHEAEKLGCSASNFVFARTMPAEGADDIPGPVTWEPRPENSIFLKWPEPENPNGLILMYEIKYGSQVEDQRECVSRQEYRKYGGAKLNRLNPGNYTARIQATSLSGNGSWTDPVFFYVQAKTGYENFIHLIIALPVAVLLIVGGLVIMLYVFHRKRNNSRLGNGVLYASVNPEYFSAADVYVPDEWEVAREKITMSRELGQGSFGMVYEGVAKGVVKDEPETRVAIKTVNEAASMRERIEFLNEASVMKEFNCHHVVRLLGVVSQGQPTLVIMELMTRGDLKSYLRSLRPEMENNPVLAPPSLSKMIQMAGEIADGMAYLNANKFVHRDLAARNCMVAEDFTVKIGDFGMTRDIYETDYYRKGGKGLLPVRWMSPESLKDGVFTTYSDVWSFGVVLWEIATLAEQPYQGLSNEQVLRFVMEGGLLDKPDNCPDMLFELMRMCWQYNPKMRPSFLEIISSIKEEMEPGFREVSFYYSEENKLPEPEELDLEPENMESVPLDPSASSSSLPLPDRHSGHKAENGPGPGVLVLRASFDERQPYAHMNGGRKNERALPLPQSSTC
Sequence of Ba/F3-EGFR wild-type cell line (P00533 whole entry, stated change not applied): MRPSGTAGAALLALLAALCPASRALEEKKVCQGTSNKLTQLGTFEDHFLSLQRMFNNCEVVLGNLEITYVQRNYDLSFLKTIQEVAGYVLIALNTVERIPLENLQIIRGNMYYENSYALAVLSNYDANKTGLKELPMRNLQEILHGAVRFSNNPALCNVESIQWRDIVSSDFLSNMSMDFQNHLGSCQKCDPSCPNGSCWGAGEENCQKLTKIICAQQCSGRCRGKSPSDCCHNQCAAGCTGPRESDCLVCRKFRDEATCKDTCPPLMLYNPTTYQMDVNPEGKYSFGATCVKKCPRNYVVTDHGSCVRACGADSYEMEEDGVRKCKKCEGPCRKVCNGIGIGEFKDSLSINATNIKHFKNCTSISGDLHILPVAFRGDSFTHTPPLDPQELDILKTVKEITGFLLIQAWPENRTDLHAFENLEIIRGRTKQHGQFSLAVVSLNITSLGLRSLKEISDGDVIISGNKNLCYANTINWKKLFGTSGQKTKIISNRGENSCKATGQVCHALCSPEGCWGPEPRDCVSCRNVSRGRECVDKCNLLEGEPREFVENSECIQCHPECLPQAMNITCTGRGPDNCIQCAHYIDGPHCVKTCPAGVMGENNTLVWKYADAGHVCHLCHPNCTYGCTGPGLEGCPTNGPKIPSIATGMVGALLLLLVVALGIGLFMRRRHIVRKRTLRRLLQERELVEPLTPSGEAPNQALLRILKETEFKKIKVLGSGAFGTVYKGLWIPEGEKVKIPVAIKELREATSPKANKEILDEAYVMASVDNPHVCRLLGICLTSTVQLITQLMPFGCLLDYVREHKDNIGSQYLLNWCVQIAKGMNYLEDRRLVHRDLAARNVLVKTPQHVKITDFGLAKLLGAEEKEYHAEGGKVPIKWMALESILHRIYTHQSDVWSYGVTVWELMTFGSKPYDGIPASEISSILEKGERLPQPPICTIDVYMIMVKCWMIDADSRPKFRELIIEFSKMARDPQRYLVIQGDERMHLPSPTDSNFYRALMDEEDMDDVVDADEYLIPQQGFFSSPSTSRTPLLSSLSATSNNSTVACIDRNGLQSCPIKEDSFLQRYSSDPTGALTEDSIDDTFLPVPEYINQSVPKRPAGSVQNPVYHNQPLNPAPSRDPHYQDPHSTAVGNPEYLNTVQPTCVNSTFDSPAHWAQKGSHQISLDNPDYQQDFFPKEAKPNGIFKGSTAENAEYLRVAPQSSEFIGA

With `C#Cc1cnc(-c2ccc(Nc3nc(Nc4cc(C)c(N5CCC(N6CCN(C)CC6)CC5)cc4OC)ncc3Br)c(P(C)(C)=O)c2)cn1` [Compound K-011], the IC50 in the test with A431 came to 4450 nM; on EGFR WT, 28 nM; on EGFRΔ19del/T790M/C797S, 0.45 nM; at IGF1R it was 104 nM. Besides, the GI50 in test [1] is 81.8 nM; in test [2] it was 7.4 nM.

For the compound `COc1cc(Nc2ncc(Br)c(Nc3ccc(-c4cnc(C5CC5)cn4)cc3P(C)(C)=O)n2)c(C)cc1N1CCOCC1` [Compound K-033, (2-((5-Bromo-2-((5-methoxy-2-methyl-4-morpholinophenyl)amino)pyrimidin-4-yl)amino)-5-(5-cylopropylpyrazin-2-yl)phenyl)dimethylphosphine oxide], the IC50 with A431 was 1590 nM; on EGFR WT, 55.6 nM; against EGFRΔ19del/T790M/C797S it was 0.3 nM; at IGF1R it was 121 nM. The GI50 was found to be 63.5 nM in test [1] and 6.4 nM in test [2].

As for `CCc1cc(Nc2ncc(Br)c(Nc3ccc(-c4ccccc4)c(C)c3P(C)(C)=O)n2)c(OC)cc1N1CCC(N2CCN(C)CC2)CC1` [Compound K-050, (4-((5-Bromo-2-((5-ethyl-2-methoxy-4-(4-(4-methylpiperazin-1-yl)piperidin-1-yl)phenyl)amino)pyrimidin-4-yl)amino)-2-methyl-[1,1′-biphenyl]-3-yl)dimethylphosphine oxide], the IC50 with A431 is 1030 nM; on EGFR WT it was 12.3 nM; against EGFRΔ19del/T790M/C797S, 1.1 nM; on IGF1R, 121 nM. Besides, the GI50 in test [1] was found to be 218 nM; in test [2], 20.6 nM.

As for `COc1cc(Nc2ncc(Br)c(Nc3ccc(-c4nccs4)cc3P(C)(C)=O)n2)c(C)cc1N1CCOCC1` [Compound K-024, (2-((5-Bromo-2-((5-methoxy-2-methyl-4-morpholinophenyl)amino)pyrimidin-4-yl)amino)-5-(thiazol-2-yl)phenyl)dimethylphosphine oxide], the IC50 in the test on A431 worked out at 601 nM; on EGFR WT it was 35 nM; against EGFRΔ19del/T790M/C797S, 0.3 nM; on IGF1R it was 71.1 nM. In addition, the GI50 in test [1] turned out to be 172 nM; in test [2], 15.6 nM.

Consider `CCc1cc(Nc2ncc(Br)c(Nc3ccc(-c4ncn(C)n4)cc3P(C)(C)=O)n2)c(OC)cc1N1CCC(N2CCN(C)CC2)CC1` [Compound 31, (2-((5-Bromo-2-((5-ethyl-2-methoxy-4-(4-(4-methylpiperazin-1-yl)piperidin-1-yl)phenyl)amino)pyrimidin-4-yl)amino)-5-(1-methyl-1H-1,2,4-triazol-3-yl)phenyl)dimethylphosphine oxide], for which the half-maximal inhibitory concentration (IC50) in the test on A431 was determined as 1030 nM; against EGFR WT, 27.6 nM; against EGFRΔ19del/T790M/C797S it was 0.3 nM; on IGF1R, 179 nM. The results for the GI50 in test [1] and in test [2] were 559 nM and 20.8 nM, respectively.

`CCOc1cc(Nc2ncc(Br)c(Nc3ccc(-c4ccc(C)cn4)cc3P(C)(C)=O)n2)c(C)cc1N1CCOCC1` [Compound K-035, (2-((5-Bromo-2-((5-ethoxy-2-methyl-4-morpholinophenyl)amino)pyrimidin-4-yl)amino)-5-(5-methylpyridin-2-yl)phenyl)dimethylphosphine oxide]: the IC50 with A431 was determined as 1680 nM; against EGFR WT, 42.8 nM; against EGFRΔ19del/T790M/C797S, 0.3 nM; at IGF1R, 48.7 nM. Besides, the GI50 came out at 146 nM in test [1] and 18.6 nM in test [2].

As for `CCc1cc(Nc2ncc(Br)c(Nc3ccc(-c4ccc(OC)cn4)cc3P(C)(C)=O)n2)c(OC)cc1N1CCC(N2CCN(C)CC2)CC1` [Compound K-074, (2-((5-Bromo-2-((5-ethyl-2-methoxy-4-(4-(4-methylpiperazin-1-yl)piperidin-1-yl)phenyl)amino)pyrimidin-4-yl)amino)-5-(5-methoxypyridin-2-yl)phenyl)dimethylphosphine oxide], the IC50 in the test with A431 was 2760 nM; against EGFR WT it was 35.8 nM; on EGFRΔ19del/T790M/C797S, 0.4 nM; at IGF1R it was 253 nM. Further, the GI50 in test [1] was 267 nM; in test [2], 4.2 nM.

Turning to `CCc1cc(Nc2ncc(Br)c(Nc3ccc(-c4cnn(C)c4)c(OC)c3P(C)(C)=O)n2)c(OC)cc1N1CCC(N2CCN(C)CC2)CC1` [Compound K-041, (6-((5-Bromo-2-((5-ethyl-2-methoxy-4-(4-(4-methylpiperazin-1-yl)piperidin-1-yl)phenyl)amino)pyrimidin-4-yl)amino)-2-methoxy-3-(1-methyl-1H-pyrazol-4-yl)phenyl)dimethylphosphine oxide], the IC50 amounted to 317 nM with A431, 12.2 nM on EGFR WT, 0.4 nM on EGFRΔ19del/T790M/C797S and 14.7 nM at IGF1R. In addition, the GI50 was found to be 147 nM in test [1] and 15.8 nM in test [2].

Consider `CCc1cc(Nc2ncc(Br)c(Nc3ccc(-c4cnc5c(ccn5C)c4)cc3P(C)(C)=O)n2)c(OC)cc1N1CCC(N2CCN(C)CC2)CC1` [Compound 55], for which the IC50 was found to be 2960 nM in the test on A431, 36.4 nM at EGFR WT, 1.5 nM against EGFRΔ19del/T790M/C797S and 497 nM on IGF1R. In addition, the GI50 in test [1] is 1070 nM; in test [2], 35 nM.

As for `COc1cnn(-c2ccc(Nc3nc(Nc4cc(C)c(N5CCC(N6CCCCC6)CC5)cc4OC)ncc3Br)c(P(C)(C)=O)c2)c1` [Compound K-087], the IC50 in the test with A431 is 4820 nM; against EGFR WT, 17.2 nM; on EGFRΔ19del/T790M/C797S it was 0.1 nM; on IGF1R it was 96.1 nM. Moreover, the values for the GI50 in test [1] and in test [2] were 245 nM and 7.4 nM, respectively.

Consider `C#Cc1cnc(-c2ccc(Nc3nc(Nc4cc(OC)c(N5CCC(N6CCN(C)CC6)CC5)cc4C)ncc3Br)c(P(C)(C)=O)c2)cn1` [Compound K-014, (2-((5-Bromo-2-((5-methoxy-2-methyl-4-(4-(4-methylpiperazin-1-yl)piperidin-1-yl)phenyl)imino)pyrimidin-4-yl)amino)-5-(5-ethynylpyrazin-2-yl)phenyl)dimethylphosphine oxide], for which the IC50 with A431 was 816 nM; against EGFR WT it was 32.5 nM; against EGFRΔ19del/T790M/C797S, 0.5 nM; on IGF1R, 50.5 nM. Besides, the GI50 was found to be 56 nM in test [1] and 7.6 nM in test [2].

On to `COc1cc(Nc2ncc(Br)c(Nc3ccc(-c4cnccn4)cc3P(C)(C)=O)n2)c(C)cc1N1CCOCC1` [Compound K-022], for which the IC50 in the test on A431 stood at 1460 nM; at EGFR WT, 31.8 nM; at EGFRΔ19del/T790M/C797S it was 0.2 nM; on IGF1R it was 52.5 nM. Also, the GI50 in test [1] was found to be 281 nM; in test [2], 16.5 nM.

With `CCc1cc(Nc2ncc(Br)c(Nc3ccc(-c4cnn(C)n4)cc3P(C)(C)=O)n2)c(OC)cc1N1CCC(N2CCN(C)CC2)CC1` [Compound 8, (2-((5-Bromo-2-((5-ethyl-2-methoxy-4-(4(4-methylpiperazin-1-yl)piperidin-1-yl)phenyl)amino)pyrimidin-4-yl)amino)-5-(2-methyl-2H-1,2,3-triazol-4-yl)phenyl)dimethylphosphine oxide], the IC50 turned out to be 773 nM in the test on A431, 10.8 nM against EGFR WT, 0.4 nM at EGFRΔ19del/T790M/C797S and 67.9 nM at IGF1R. Moreover, the values for the GI50 in test [1] and in test [2] were 181 nM and 3.3 nM, respectively.

In the case of `COc1cnn(-c2ccc(Nc3nc(Nc4cc(C)c(N5CCN(C6CCCC6)CC5)cc4OC)ncc3Br)c(P(C)(C)=O)c2)c1` [Compound K-089, (2-((5-Bromo-2-((4-(4-cyclopentylpiperazin-1-yl)-2-methoxy-5-methylphenyl)amino)pyrimidin-4-yl)amino)-5-(4-methoxy-1H-pyrazol-1-yl)phenyl)dimethylphosphine oxide], the IC50 in the test with A431 is more than 10000 nM; against EGFR WT it was 169 nM; on EGFRΔ19del/T790M/C797S, 0.3 nM; on IGF1R, 259 nM. The GI50 in test [1] is 400 nM; in test [2] it was 9.5 nM.

As for `CCc1cc(Nc2ncc(Br)c(Nc3ccc(-c4cnc(N(C)C)cn4)cc3P(C)(C)=O)n2)c(OC)cc1N1CCC(N2CCN(C)CC2)CC1` [Compound 35, (2-((5-Bromo-2-((5-ethyl-2-methoxy-4-(4-(4-methylpiperazin-1-yl)piperidin-1-yl)phenyl)amino)pyrimidin-4-yl)amino)-5-(5-(dimethylamino)pyrazin-2-yl)phenyl)dimethylphosphine oxide], the IC50 in the test on A431 is more than 10000 nM; at EGFR WT it was 21.5 nM; against EGFRΔ19del/T790M/C797S, 0.5 nM; at IGF1R, 238 nM. For the same compound, the GI50 was determined as 259 nM in test [1] and 3.1 nM in test [2].
